Results: patent US20230085307A1, “PYRIDAZINONE COMPOUND AND HERBICIDE” (NISSAN CHEMICAL CORPORATION, priority 2019, published 2023)

How the values were obtained:
barnyard grass [1] = assay: Test Example 3: herbicidal effect by foliage application, Wagner pot (Table 18, symbol H); assay type: in vivo, barnyard grass (Echinochloa crus-galli); settings: amount of applied herbicide 320 g/ha
Method in brief: (§1)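 Plants were sown in alluvial soil held under 0.1–0.5 cm standing water and grown 14 days in a greenhouse at 25–30 °C. An emulsifiable formulation, water-diluted to the set dose, was then sprayed onto the foliage, and effects were scored three weeks later using previously defined criteria.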

Chinese sprangletop = assay: Test Example 3: herbicidal effect by foliage application, Wagner pot (Table 18, symbol D); assay type: in vivo, chinese sprangletop (Leptochloa chinensis); settings: amount of applied herbicide 320 g/ha
Method in brief: as §1

rice flat sedge = assay: Test Example 3: herbicidal effect by foliage application, Wagner pot (Table 18, symbol E); assay type: in vivo, rice flat sedge (Cyperus iria); settings: amount of applied herbicide 320 g/ha
Method in brief: as §1

southern crabgrass [2] = assay: Test Example 4: herbicidal effect by soil treatment (Table 19, symbol F); assay type: in vivo, southern crabgrass (Digitaria ciliaris); settings: amount of applied herbicide 320 g/ha
Method in brief: (§2)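 Emulsion of test compound, water-diluted to predetermined amount, sprayed on soil after sowing (seed depth ~1.5 cm, sterilized diluvial soil). Greenhouse, 25–30° C. Effect graded at three weeks post-spray.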

green foxtail [3] = assay: Test Example 4: herbicidal effect by soil treatment (Table 19, symbol G); assay type: in vivo, green foxtail (Setaria viridis); settings: amount of applied herbicide 320 g/ha
Method in brief: as §2

barnyard grass [4] = assay: Test Example 4: herbicidal effect by soil treatment (Table 19, symbol H); assay type: in vivo, barnyard grass (Echinochloa crus-galli); settings: amount of applied herbicide 320 g/ha
Method in brief: as §2

wild oat [5] = assay: Test Example 4: herbicidal effect by soil treatment (Table 19, symbol I); assay type: in vivo, wild oat (Avena fatua); settings: amount of applied herbicide 320 g/ha
Method in brief: as §2

blackgrass [6] = assay: Test Example 4: herbicidal effect by soil treatment (Table 19, symbol J); assay type: in vivo, blackgrass (Alopecurus myosuroides); settings: amount of applied herbicide 320 g/ha
Method in brief: as §2

Italian ryegrass [7] = assay: Test Example 4: herbicidal effect by soil treatment (Table 19, symbol K); assay type: in vivo, Italian ryegrass (Lolium multiflorum); settings: amount of applied herbicide 320 g/ha
Method in brief: as §2

windgrass [8] = assay: Test Example 4: herbicidal effect by soil treatment (Table 19, symbol L); assay type: in vivo, windgrass (Apera spica-venti); settings: amount of applied herbicide 320 g/ha
Method in brief: as §2

velvetleaf [9] = assay: Test Example 4: herbicidal effect by soil treatment (Table 19, symbol M); assay type: in vivo, velvetleaf (Abutilon theophrasti); settings: amount of applied herbicide 320 g/ha
Method in brief: as §2

redroot pigweed [10] = assay: Test Example 4: herbicidal effect by soil treatment (Table 19, symbol N); assay type: in vivo, redroot pigweed (Amaranthus retroflexus); settings: amount of applied herbicide 320 g/ha
Method in brief: as §2

lambsquarters [11] = assay: Test Example 4: herbicidal effect by soil treatment (Table 19, symbol O); assay type: in vivo, lambsquarters (Chenopodium album); settings: amount of applied herbicide 320 g/ha
Method in brief: as §2

chickweed [12] = assay: Test Example 4: herbicidal effect by soil treatment (Table 19, symbol P); assay type: in vivo, common chickweed (Stellaria media); settings: amount of applied herbicide 320 g/ha
Method in brief: as §2

persian speedwell [13] = assay: Test Example 4: herbicidal effect by soil treatment (Table 19, symbol R); assay type: in vivo, Persian speedwell (Veronica persica); settings: amount of applied herbicide 320 g/ha
Method in brief: as §2

southern crabgrass [14] = assay: Test Example 5: herbicidal effect by foliage application, plastic box (Table 20, symbol F); assay type: in vivo, southern crabgrass (Digitaria ciliaris); settings: foliage application, AAH 320 g/ha, evaluated three weeks after application
Method in brief: (§3)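 Post-emergence foliar test in sterilized diluvial soil. Compound applied as water-diluted emulsion at a predetermined rate to 14-day-old plants; evaluation at three weeks.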

green foxtail [15] = assay: Test Example 5: herbicidal effect by foliage application, plastic box (Table 20, symbol G); assay type: in vivo, green foxtail (Setaria viridis); settings: foliage application, AAH 320 g/ha, evaluated three weeks after application
Method in brief: as §3

barnyard grass [16] = assay: Test Example 5: herbicidal effect by foliage application, plastic box (Table 20, symbol H); assay type: in vivo, barnyard grass (Echinochloa crus-galli); settings: foliage application, AAH 320 g/ha, evaluated three weeks after application
Method in brief: as §3

wild oat [17] = assay: Test Example 5: herbicidal effect by foliage application, plastic box (Table 20, symbol I); assay type: in vivo, wild oat (Avena fatua); settings: foliage application, AAH 320 g/ha, evaluated three weeks after application
Method in brief: as §3

blackgrass [18] = assay: Test Example 5: herbicidal effect by foliage application, plastic box (Table 20, symbol J); assay type: in vivo, blackgrass (Alopecurus myosuroides); settings: foliage application, AAH 320 g/ha, evaluated three weeks after application
Method in brief: as §3

Italian ryegrass [19] = assay: Test Example 5: herbicidal effect by foliage application, plastic box (Table 20, symbol K); assay type: in vivo, Italian ryegrass (Lolium multiflorum); settings: foliage application, AAH 320 g/ha, evaluated three weeks after application
Method in brief: as §3

windgrass [20] = assay: Test Example 5: herbicidal effect by foliage application, plastic box (Table 20, symbol L); assay type: in vivo, windgrass (Apera spica-venti); settings: foliage application, AAH 320 g/ha, evaluated three weeks after application
Method in brief: as §3

velvetleaf [21] = assay: Test Example 5: herbicidal effect by foliage application, plastic box (Table 20, symbol M); assay type: in vivo, velvetleaf (Abutilon theophrasti); settings: foliage application, AAH 320 g/ha, evaluated three weeks after application
Method in brief: as §3

redroot pigweed [22] = assay: Test Example 5: herbicidal effect by foliage application, plastic box (Table 20, symbol N); assay type: in vivo, redroot pigweed (Amaranthus retroflexus); settings: foliage application, AAH 320 g/ha, evaluated three weeks after application
Method in brief: as §3

lambsquarters [23] = assay: Test Example 5: herbicidal effect by foliage application, plastic box (Table 20, symbol O); assay type: in vivo, lambsquarters (Chenopodium album); settings: foliage application, AAH 320 g/ha, evaluated three weeks after application
Method in brief: as §3

chickweed [24] = assay: Test Example 5: herbicidal effect by foliage application, plastic box (Table 20, symbol P); assay type: in vivo, common chickweed (Stellaria media); settings: foliage application, AAH 320 g/ha, evaluated three weeks after application
Method in brief: as §3

persian speedwell [25] = assay: Test Example 5: herbicidal effect by foliage application, plastic box (Table 20, symbol R); assay type: in vivo, Persian speedwell (Veronica persica); settings: foliage application, AAH 320 g/ha, evaluated three weeks after application
Method in brief: as §3

| SMILES | herbicidal effect on H: barnyard grass (barnyard grass [1]) | herbicidal effect on D: Chinese sprangletop (Chinese sprangletop) | herbicidal effect on E: rice flat sedge (rice flat sedge) | herbicidal effect on F: southern crabgrass (southern crabgrass [2]) | herbicidal effect on G: green foxtail (green foxtail [3]) | herbicidal effect on H: barnyard grass (barnyard grass [4]) | herbicidal effect on I: wild oat (wild oat [5]) | herbicidal effect on J: blackgrass (blackgrass [6]) | herbicidal effect on K: Italian ryegrass (Italian ryegrass [7]) | herbicidal effect on L: windgrass (windgrass [8]) | herbicidal effect on M: velvetleaf (velvetleaf [9]) | herbicidal effect on N: redroot pigweed (redroot pigweed [10]) | herbicidal effect on O: lambsquarters (lambsquarters [11]) | herbicidal effect on P: chickweed (chickweed [12]) | herbicidal effect on R: persian speedwell (persian speedwell [13]) | F: southern crabgrass, herbicidal effect (criteria 0-5) (southern crabgrass [14]) | G: green foxtail, herbicidal effect (criteria 0-5) (green foxtail [15]) | H: barnyard grass, herbicidal effect (criteria 0-5) (barnyard grass [16]) | I: wild oat, herbicidal effect (criteria 0-5) (wild oat [17]) | J: blackgrass, herbicidal effect (criteria 0-5) (blackgrass [18]) | also measured |
| --- | --- | --- | --- | --- | --- | --- | --- | --- | --- | --- | --- | --- | --- | --- | --- | --- | --- | --- | --- | --- | --- |
| C#CCOc1c(C)nn(C)c(=O)c1-c1c(-c2ccc(OC(F)F)cc2)sc2ccc(F)cc12 [2-301] | 3 (Herbicidal rate of 40% or more and less than 70%) | 0 (Herbicidal rate of 5% or less (almost no effect)) | 2 (Herbicidal rate of 20% or more and less than 40%) | 0 (Herbicidal rate of 5% or less (almost no effect)) | 0 (Herbicidal rate of 5% or less (almost no effect)) | 0 (Herbicidal rate of 5% or less (almost no effect)) | 0 (Herbicidal rate of 5% or less (almost no effect)) | 0 (Herbicidal rate of 5% or less (almost no effect)) | 0 (Herbicidal rate of 5% or less (almost no effect)) | 0 (Herbicidal rate of 5% or less (almost no effect)) | 0 (Herbicidal rate of 5% or less (almost no effect)) | 0 (Herbicidal rate of 5% or less (almost no effect)) | 0 (Herbicidal rate of 5% or less (almost no effect)) | 0 (Herbicidal rate of 5% or less (almost no effect)) | 3 (Herbicidal rate of 40% or more and less than 70%) | 0 (Herbicidal rate of 5% or less (almost no effect)) | 0 (Herbicidal rate of 5% or less (almost no effect)) | 0 (Herbicidal rate of 5% or less (almost no effect)) | 0 (Herbicidal rate of 5% or less (almost no effect)) | 0 (Herbicidal rate of 5% or less (almost no effect)) | K: Italian ryegrass, herbicidal effect (criteria 0-5) (Italian ryegrass [19]): 0 (Herbicidal rate of 5% or less (almost no effect)); L: windgrass, herbicidal effect (criteria 0-5) (windgrass [20]): 0 (Herbicidal rate of 5% or less (almost no effect)); M: velvetleaf, herbicidal effect (criteria 0-5) (velvetleaf [21]): 5 (Herbicidal rate of 90% or more (almost completely withered)); N: redroot pigweed, herbicidal effect (criteria 0-5) (redroot pigweed [22]): 3 (Herbicidal rate of 40% or more and less than 70%); O: lambsquarters, herbicidal effect (criteria 0-5) (lambsquarters [23]): 5 (Herbicidal rate of 90% or more (almost completely withered)); P: chickweed, herbicidal effect (criteria 0-5) (chickweed [24]): 5 (Herbicidal rate of 90% or more (almost completely withered)); R: persian speedwell, herbicidal effect (criteria 0-5) (persian speedwell [25]): 5 (Herbicidal rate of 90% or more (almost completely withered)) |
| Cc1nn(C)c(=O)c(-c2c(-c3ccc(OC(F)F)cc3)sc3ccc(F)cc23)c1OCC#N [2-303] | 5 (Herbicidal rate of 90% or more (almost completely withered)) | 4 (Herbicidal rate of 70% or more and less than 90%) | 3 (Herbicidal rate of 40% or more and less than 70%) | 0 (Herbicidal rate of 5% or less (almost no effect)) | 0 (Herbicidal rate of 5% or less (almost no effect)) | 0 (Herbicidal rate of 5% or less (almost no effect)) | 0 (Herbicidal rate of 5% or less (almost no effect)) | 0 (Herbicidal rate of 5% or less (almost no effect)) | 0 (Herbicidal rate of 5% or less (almost no effect)) | 0 (Herbicidal rate of 5% or less (almost no effect)) | 0 (Herbicidal rate of 5% or less (almost no effect)) | 0 (Herbicidal rate of 5% or less (almost no effect)) | 0 (Herbicidal rate of 5% or less (almost no effect)) | 3 (Herbicidal rate of 40% or more and less than 70%) | 4 (Herbicidal rate of 70% or more and less than 90%) | 0 (Herbicidal rate of 5% or less (almost no effect)) | 5 (Herbicidal rate of 90% or more (almost completely withered)) | 4 (Herbicidal rate of 70% or more and less than 90%) | 0 (Herbicidal rate of 5% or less (almost no effect)) | 0 (Herbicidal rate of 5% or less (almost no effect)) | K: Italian ryegrass, herbicidal effect (criteria 0-5) (Italian ryegrass [19]): 3 (Herbicidal rate of 40% or more and less than 70%); L: windgrass, herbicidal effect (criteria 0-5) (windgrass [20]): 0 (Herbicidal rate of 5% or less (almost no effect)); M: velvetleaf, herbicidal effect (criteria 0-5) (velvetleaf [21]): 5 (Herbicidal rate of 90% or more (almost completely withered)); N: redroot pigweed, herbicidal effect (criteria 0-5) (redroot pigweed [22]): 5 (Herbicidal rate of 90% or more (almost completely withered)); O: lambsquarters, herbicidal effect (criteria 0-5) (lambsquarters [23]): 5 (Herbicidal rate of 90% or more (almost completely withered)); P: chickweed, herbicidal effect (criteria 0-5) (chickweed [24]): 5 (Herbicidal rate of 90% or more (almost completely withered)); R: persian speedwell, herbicidal effect (criteria 0-5) (persian speedwell [25]): 5 (Herbicidal rate of 90% or more (almost completely withered)) |
| CCCC(=O)Oc1c(C)nn(C)c(=O)c1-c1c(-c2ccc(F)cc2F)sc2ccc(F)cc12 [2-343] | 5 (Herbicidal rate of 90% or more (almost completely withered)) | 5 (Herbicidal rate of 90% or more (almost completely withered)) | 4 (Herbicidal rate of 70% or more and less than 90%) | 3 (Herbicidal rate of 40% or more and less than 70%) | 4 (Herbicidal rate of 70% or more and less than 90%) | 3 (Herbicidal rate of 40% or more and less than 70%) | 2 (Herbicidal rate of 20% or more and less than 40%) | 2 (Herbicidal rate of 20% or more and less than 40%) | 5 (Herbicidal rate of 90% or more (almost completely withered)) | 3 (Herbicidal rate of 40% or more and less than 70%) | 3 (Herbicidal rate of 40% or more and less than 70%) | 3 (Herbicidal rate of 40% or more and less than 70%) | 2 (Herbicidal rate of 20% or more and less than 40%) | 3 (Herbicidal rate of 40% or more and less than 70%) | 5 (Herbicidal rate of 90% or more (almost completely withered)) | 5 (Herbicidal rate of 90% or more (almost completely withered)) | 5 (Herbicidal rate of 90% or more (almost completely withered)) | 3 (Herbicidal rate of 40% or more and less than 70%) | 3 (Herbicidal rate of 40% or more and less than 70%) | 4 (Herbicidal rate of 70% or more and less than 90%) | K: Italian ryegrass, herbicidal effect (criteria 0-5) (Italian ryegrass [19]): 5 (Herbicidal rate of 90% or more (almost completely withered)); L: windgrass, herbicidal effect (criteria 0-5) (windgrass [20]): 5 (Herbicidal rate of 90% or more (almost completely withered)); M: velvetleaf, herbicidal effect (criteria 0-5) (velvetleaf [21]): 5 (Herbicidal rate of 90% or more (almost completely withered)); N: redroot pigweed, herbicidal effect (criteria 0-5) (redroot pigweed [22]): 5 (Herbicidal rate of 90% or more (almost completely withered)); O: lambsquarters, herbicidal effect (criteria 0-5) (lambsquarters [23]): 4 (Herbicidal rate of 70% or more and less than 90%); P: chickweed, herbicidal effect (criteria 0-5) (chickweed [24]): 5 (Herbicidal rate of 90% or more (almost completely withered)); R: persian speedwell, herbicidal effect (criteria 0-5) (persian speedwell [25]): 5 (Herbicidal rate of 90% or more (almost completely withered)) |
